Measured values published in patent US20070275403A1, “Diagnostic methods for determining treatment” (priority 2006, published 2007).
Where “and” joins values, the source holds several entries; their conditions need not be identical. Identical values can stand only once. Like-named read-outs stand apart in the source and are kept apart here.

Assays:
NSCLC [1] = conditions: patients previously screened for EGFR expression; cited from earlier work
NSCLC patients [2] = experiment: Overall survival (Kaplan-Meier) of NSCLC patients in the gefitinib expanded access trial, by molecular subgroup; assay type: in vivo, human
Description: (§1) Specimens. […] Chart review and study analyses were approved by the RUMC Institutional Review Board. The diagnosis of NSCLC in the archival material was obtained from pathology reports and confirmed by histologic evaluation before further analysis. Age, gender, smoking status and disease grade were established from chart review and patient report at registration. Smoking status was defined by lifetime consumption of <100 cigarettes. Response was assessed according to RECIST criteria of measurable and non-measurable lesions. […] Progressive disease was defined by relapse within 70 days of treatment.
(§2) In Situ Hybridization. For copy number analyses by FISH, EGFR and centromere 7 (CEN7) probes were utilized to examine EGFR/cell, CEN7/cell and EGFR/CEN 7. A probe targeting α satellite repeat sequences near the centromere of chromosome 7 was used to indicate CEN 7 copy number (SpectrumGreen™ CEP® 7, Abbott Molecular Inc.). Specimen slides were prepared using either the Vysis Paraffin Pretreatment II or III kits (Abbott Molecular Inc.). The prepared specimen slides were hybridized with two-color FISH probe solutions (SpectrumOrange™ LSI® EGFR, Spectrum-Green CEP 7; Abbott Molecular Inc.) in a HYBrite™ automated co-denaturation oven (Abbott Molecular Inc.). The slides were placed on the oven surface and 10 μL probe solution was layered over the tissue section. A cover slip was applied over the probe solution and sealed to the slide with rubber cement. After denaturation at 73° C. for 5 minutes, the probe was hybridized at 37° C. for 16-18 hr. Following hybridization and removal of the rubber cement seal, the slides were placed in room-temperature 2×SSC (SSC=0.3 M NaCl, 15 mM sodium citrate), 0.3% Nonidet P40 (NP40) for 2-5 min to detach the cover slips. The slides were then immersed in 73° C. 2×SSC, 0.3% NP40 for 2 min to remove nonspecifically bound probe and then were allowed to dry in the dark. DAPI I antifade solution (Abbott Molecular Inc.) was applied to the specimen for visualization of the nuclei. […] Over-digested or under-digested specimens were reprocessed as described previously.
(§3) Typically, 30-90 (median 80) cells were enumerated in each specimen. The mean number of signals per cell was calculated by totaling the number of signals from each cell for EGFR and CEN 7, and dividing by the number of cells counted to provide EGFR/cell and CEN 7/cell, respectively. EGFR/cell was divided by CEN 7/cell signals per cell to yield EGFR/CEN7. Other FISH parameters used in developing selection criteria are defined as follows. The EGFR % gain or CEN 7% gain was calculated as the percentage of cells with more than two EGFR or CEN 7 signals, respectively. […] When a slide was counted multiple times, counts were combined and used for recalculating the ratios and % gain.
(§4) Optimal cutoff points for defining high ratios or high % gains were selected by first generating cutoffs from the mean minus 1.5 standard deviations to the mean plus 3.5 standard deviations, in 0.1 standard deviation increments, for each parameter (ratios and % gains), using the mean and standard deviations of the non responding patients. Each high and low ratios and % gains at each cutoff were compared with objective response and survival (greater than or less than 1 year survival) in contingency tables. Cutoffs with the lowest chi-square probabilities were selected for further analysis.
Cutpoints were also assigned to indicate loss of chromosome 7, either monosomy or nullisomy.
(§5) Immunohistochemistry. Paraffin sections (5 μm, freshly cut) were deparaffinized and rehydrated by standard technique. A microwave antigen retrieval method was then carried out in citrate buffer. The tissue was stained using a Ventana ES Histo-stainer (Ventana Medical Systems, Tucson, Ariz.) using supplied diaminobenzidine and avidin-biotin conjugate immunoperoxidase chemistry.

NSCLC [3] = conditions: phase II trials; cited from earlier work
NSCLC [4] = conditions: phase III trial; cited from earlier work
NSCLC patients [5] = experiment: Objective response (RECIST) of NSCLC patients in the gefitinib expanded access trial, by demographic and molecular subgroup; assay type: in vivo, human
Description: as §1, §2, §3, §4, §5
Immunostaining frequency of all tumor cells on each slide was estimated on a scale of 0 to 4 without knowledge of clinical patient data.

C#Cc1cccc(Nc2ncnc3cc(OCCOC)c(OCCOC)cc23)c1 [Erlotinib, erlotinib]
response rate (NSCLC [1]): 12.3%

COc1cc2ncnc(Nc3ccc(F)c(Cl)c3)c2cc1OCCCN1CCOCC1 [gefitinib]
Median Survival (NSCLC patients [2]; CEN 7 % ≧4 copies <52%): 6.9 Months | Median Survival (NSCLC patients [2]; CEN7 % ≧4 copies ≧52%, pAKT+): 39.4 months | Median Survival (NSCLC patients [2]; CEN7 % ≧4 copies, pAKT: Any negative): 5.9 months | Median Survival (NSCLC patients [2]; CEN 7/cell <3.6 (non-polysomy)): 6.0 Months | Median Survival (NSCLC patients [2]; CEN 7/cell <3.6 and >2.0 (“normal”)): 5.8 Months | Median Survival (NSCLC patients [2]; CEN 7/cell >3.6 or <2.0 (aneusomy)): 15.3 Months | Median Survival (NSCLC patients [2]; CEN 7/cell ≧3.6 (polysomy)): 16.2 Months | Median Survival (NSCLC patients [2]; CEN 7/cell, pAKT: Any negative): 5.9 months | Median Survival (NSCLC patients [2]; CEN 7 ≧3.6 (polysomy), pAKT+): 24.5 months | Median Survival (NSCLC patients [2]; EGFR % gain <75%): 7.9 Months | Median Survival (NSCLC patients [2]; EGFR % gain ≧75%): 9.4 Months | Median Survival (NSCLC patients [2]; EGFR % gain ≧75% cells and pAKT+): 24.5 months | Median Survival (NSCLC patients [2]; EGFR % gain, pAKT: Any negative): 6.6 months | Median Survival (NSCLC patients [2]; EGFR Expression, IHC Not detected): 8.5 Months | Median Survival (NSCLC patients [2]; EGFR Expression, IHC Present): 7.1 Months | Median Survival (NSCLC patients [2]; EGFR/CEN 7 % gain <34%): 6.0 Months | Median Survival (NSCLC patients [2]; EGFR/CEN 7 % gain ≧3.4%): 10.3 Months | Median Survival (NSCLC patients [2]; EGFR/CEN7 % gain, PTEN: Any negative): 6.6 months | Median Survival (NSCLC patients [2]; PTEN Expression, IHC Not detected): 5.9 Months | Median Survival (NSCLC patients [2]; PTEN Expression, IHC Present): 9.3 Months | Median Survival (NSCLC patients [2]; pAKT Expression, IHC Not detected): 5.8 Months | Median Survival (NSCLC patients [2]; pAKT Expression, IHC Present): 10.5 Months | response rate (NSCLC [3]): 18.4% and 11.8% | response rate (NSCLC [4]): 8-13% | survival benefit (NSCLC [4]): no significant survival benefit | Objective Response (partial and complete, RECIST), number of patients (%) (NSCLC patients [5]; 250 mg daily gefitinib, Total, 81 patients): 12 (15) % | Objective Response, number of patients (%) (NSCLC patients [5]; 250 mg daily, Age <60 years): 8 (13) % | Objective Response, number of patients (%) (NSCLC patients [5]; 250 mg daily, Age ≧60 years): 4 (21) % | Objective Response, number of patients (%) (NSCLC patients [5]; 250 mg daily, Gender Female): 7 (16) % | Objective Response, number of patients (%) (NSCLC patients [5]; 250 mg daily, Gender Male): 5 (14) % | Objective Response, number of patients (%) (NSCLC patients [5]; 250 mg daily, Histopathological subtype Bronchoalveolar, adenocarcinoma): 10 (18) % | Objective Response, number of patients (%) (NSCLC patients [5]; 250 mg daily, Histopathological subtype Other): 2 (8) % | Objective Response, number of patients (%) (NSCLC patients [5]; 250 mg daily, Never smoked): 7 (58) % | Objective Response, number of patients (%) (NSCLC patients [5]; 250 mg daily, Performance status 0 to 1): 6 (13) % | Objective Response, number of patients (%) (NSCLC patients [5]; 250 mg daily, Performance status 2 to 4): 6 (18) % | Objective Response, number of patients (%) (NSCLC patients [5]; 250 mg daily, Prior chemotherapy None): 2 (14) % | Objective Response, number of patients (%) (NSCLC patients [5]; 250 mg daily, Prior chemotherapy One): 7 (18) % | Objective Response, number of patients (%) (NSCLC patients [5]; 250 mg daily, Prior chemotherapy Two or more): 3 (5) % | Objective Response, number of patients (%) (NSCLC patients [5]; 250 mg daily, Smoking status Yes): 5 (7) % | Overall response (NSCLC patients [5]; 81 patients, 250 mg daily gefitinib): 15% | Objective Response, number of patients (%) (NSCLC patients [5]; CEN 7/cell <3.6): 7 (11) % | Objective Response, number of patients (%) (NSCLC patients [5]; CEN 7/cell <3.8): 7 (11) % | Objective Response, number of patients (%) (NSCLC patients [5]; CEN 7/cell <3.8 and >2.0 (“normal”)): 7 (13) % | Objective Response, number of patients (%) (NSCLC patients [5]; CEN 7/cell <4): 7 (11) % | Objective Response, number of patients (%) (NSCLC patients [5]; CEN 7/cell >3.8 or <2.0 (aneusomy)): 5 (19) % | Objective Response, number of patients (%) (NSCLC patients [5]; CEN 7/cell ≧3.6): 5 (28) % | Objective Response, number of patients (%) (NSCLC patients [5]; CEN 7/cell ≧3.8): 5 (31) % | Objective Response, number of patients (%) (NSCLC patients [5]; CEN 7/cell ≧4): 5 (36) % | Objective Response, number of patients (%) (NSCLC patients [5]; EGFR % gain <75%): 5 (9) % | Objective Response, number of patients (%) (NSCLC patients [5]; EGFR % gain ≧75%): 7 (29) % | Objective Response, number of patients (%) (NSCLC patients [5]; EGFR IHC 0): 3 (9) % | Objective Response, number of patients (%) (NSCLC patients [5]; EGFR IHC 1+ to 4+): 9 (20) % | Objective Response, number of patients (%) (NSCLC patients [5]; EGFR/CEN 7 % gain <34%): 3 (7) % | Objective Response, number of patients (%) (NSCLC patients [5]; EGFR/CEN 7 % gain ≧34%): 9 (23) % | Objective Response, number of patients (%) (NSCLC patients [5]; EGFR/CEN 7 <1): 1 (5) % | Objective Response, number of patients (%) (NSCLC patients [5]; EGFR/CEN 7 ≧1): 11 (19) % | Objective Response, number of patients (%) (NSCLC patients [5]; EGFR/cell ≦6 (FISH)): 7 (10) % | Objective Response, number of patients (%) (NSCLC patients [5]; EGFR/cell ≧6 (FISH)): 5 (46) % | Objective Response, number of patients (%) (NSCLC patients [5]; PTEN IHC Absent, 73 patients analyzed): 3 (7) % | Objective Response, number of patients (%) (NSCLC patients [5]; PTEN IHC Present (1+ to 4+), 73 patients analyzed): 8 (30) % | patients with complete response (NSCLC patients [5]; of 81 patients): 2 patients | patients with partial response (NSCLC patients [5]; of 81 patients): 10 patients | patients with stable disease (NSCLC patients [5]; of 81 patients): Thirty-six | Objective Response, number of patients (%) (NSCLC patients [5]; pAKT IHC Absent, 73 patients analyzed): 4 (10) % | Objective Response, number of patients (%) (NSCLC patients [5]; pAKT IHC Present (1+ to 4+), 73 patients analyzed): 7 (21) %
